According to US20090074850A1, “USE OF A TOPICAL COMPOSITION CONTAINING EPIDERMAL GROWTH FACTOR (EGF) FOR DIABETIC FOOT AMPUTATION PREVENTION” (priority 2005, published 2009):
Marks after values point to notes of the source that are not given here.

Legend:
[1] = Concentration of EGF in the viable tissue deep below the cutaneous lesions (ELISA); format: in vivo, Wistar rats; settings: tissue 1 cm below lesion
Description: To determine the concentration of EGF, histological cuts of the tissue deep below (1 cm) the cutaneous lesions were performed 20 min, 1 h, 4 h, 8 h, 16 h and 24 h after the induction of lesions. The tissue was homogenized into a phosphate-buffered saline solution. The concentration of EGF was determined by an Enzyme Linked Immunosorbent Assay (ELISA).

[2] = tested on: chronic ulcers in male Wistar rats treated with methylglyoxal; assay: Experimental model of chronic cutaneous ulcers (methylglyoxal-treated rats); format: in vivo
Description: The following experiment was aimed at evaluating the cicatrisation effect of the new pharmaceutical formulation of topical use that is based on traditional or deformable liposomes containing EGF in chronic lesions of poor prognosis, which simulate lesions in diabetic patients.
Experimental Biomodel Male Wistar rats with a body weight of 225-250 grams. Animal were maintained in controlled areas of the animal facility at CIGB under a constant illumination schedule of 12×12 hours, air change cycles, and free access to the diet. The rats were individually housed into T3 boxes with replacement of the bedding every 48 hours after its sterilization. The animals had previously been treated for two months with a 0.01% methylglyoxal solution to create a glycosylation environment similar to that occurring in a diabetic patient of long term evolution. Among other organic damages, this leads to a slow down of the granulation and remodelation of wounds (Berlanga J., Cibrian D., et al. (2005) Methylglyoxal administration induces diabetes-like microvascular changes and perturbs the healing process of cutaneous wounds. Clin Sci (Lond). 109(1):83-95).
(§1) Induction of ulcers: Animals were anesthetized by intraperitoneal injection of ketamine/xylazine. The back of rats comprising the area from the retroscapular space up to the sacrum was mechanically and chemically depilated. This region was aseptisized with a solution of povidone-iodine and isopropyl alcohol. The area over the skin selected for the induction of ulcers was marked with Chinese ink in order to induce circular, total width lesions with the aid of 9 mm-diameter biotomes (AcuDrem, Fl, USA). […] Lesions were washed with a sterile saline solution and their inner border was delineated with permanent ink for later calculation of wound area at time zero. The lesions of all animals were hygienized daily with 70% ethanol and sterile saline before the application of any treatment.
(§2) The ulcers created in the animals were randomly assigned to the following experimental treatment groups by using an input order/group crossmatching table:
(§3) Group I—no treatment. Group II—placebo (formulation of empty deformable liposomes—without EGF) applied topically.
(§4) Group III—infiltration of an EGF solution containing 75 micrograms per milliliter by using hypodermic needles. Infiltrations were performed on the border and the bottom of wounds
(§5) Group IV—treatment with the formulation of traditional liposomes containing 25 micrograms of EGF per gram of substance applied topically Group V—treatment with the formulation of traditional liposomes containing 75 micrograms of EGF per gram of substance applied topically Group VI—treatment with the formulation of deformable liposomes containing 25 micrograms of EGF per gram of substance applied topically Group VII—treatment with the formulation of deformable liposomes containing 75 micrograms of EGF per gram of substance applied topically
(§6) Each group consisted of 10 rats; therefore 60 wounds per group were studied. Treatments were performed daily, after sedation of animals with diazepam administrated by the intra-peritoneal route.
The lesions were traced on transparent acetate sheets for calculating the kinetics of the wounds contraction over the following times: Time 0—represents 100% of opened lesion area and 0% wound contraction, Time 1—72 hours after the induction of lesions, Time 2—five days after the induction of lesions, Time 3—seven days after the induction of lesions, […], on which the animals were sacrificed, according to previous experiences on the kinetics of the spontaneous cicatrisation of these lesions. The images with traced lesions borders were digitized. The area of lesions and the percent of contraction were calculated by using the image analysis software DIGIPAT. Statistical analyses of each parameter were performed with the SPSS package by using the non-parametric Mann Whitney U test, a signification level of p<0.05 was assumed. […]

[3] = tested on: controlled acute ulcers in male Wistar rats; assay: Experimental model of controlled acute lesions; format: in vivo
Description: The following experiment was performed with the aim of evaluating the cicatrisation effect of the new pharmaceutical formulation for topical use, which is based on EGF-loaded (deformable or traditional) liposomes, in acute lesions of satisfactory prognosis.
as §1, with “Experimental Biomodel Male Wistar rats with a body weight of 225-250 grams. Animal were maintained in controlled areas of the animal facility at CIGB under a constant illumination schedule of 12×12 hours, air change cycles, and free access to the diet. The rats were individually housed into T3 boxes with replacement of the bedding every 48 hours after its sterilization. Induction” for “Induction”
as §2, §3, §4
as §5, with “V—treatment” for “VI—treatment”
as §6
The lesions were traced on transparent acetate sheets for calculating the kinetics of the wounds contraction over the following times: Time 0—represents 100% of opened lesion area and 0% wound contraction, Time 1—72 hours after the induction of lesions, Time 2—five days after the induction of lesions, Time 3—seven days after the induction of lesions, Time 4—nine days after the induction of lesions. The ninth day was set as the end of this study, on which the animals were sacrificed, according to previous experiences on the kinetics of the spontaneous cicatrisation of these lesions. The images with traced lesions borders were digitized. The area of lesions and the percent of contraction were calculated by using the image analysis software DIGIPAT. Statistical analyses of each parameter were performed with the SPSS package by using the non-parametric Mann Whitney U test, a signification level of p<0.05 was assumed.
Animals were sacrificed by intra-peritoneal injection with an overdose of sodium pentobarbital (250 mg/kg). Lesion were dried up from the panniculus carnosus and fixed in 10% neutral formalin for later inclusion in paraffin. The hematoxylin/eosin, van Giesson's and Masson's trichromic stains were used. For each group, the number of animals with 100% epithelization of the lesion, and with a stratified and differentiated epidermis was determined. […]

[4] = tested on: diabetic foot ulcers, grade IV and V lesions with a severe ischemic component; settings: EGF infiltrated in and around lesions with hypodermic needles; cited from earlier work

Group III: infiltration of an EGF solution containing 75 micrograms per milliliter by using hypodermic needles
EGF concentration ([1]; 20 min): 27.55 ± 0.14 µg/mL
EGF concentration ([1]; 1 h): 5.47 ± 0.1 µg/mL
EGF concentration ([1]; 4 h): 1.55 ± 0.1 µg/mL
EGF concentration ([1]; 8 h): 0.26 ± 0.04 µg/mL
EGF concentration ([1]; 16 h): 0.07 ± 0.01 µg/mL
EGF concentration ([1]; 24 h): 0.02 ± 0.005 µg/mL
No. wounds with 100% epithelization ([2]; 60 wounds per group): 16
No. wounds with a mature epithelium ([2]; 60 wounds per group): 11
Contraction (%) ([2]; Time 1): 6.55 ± 1.14%
Contraction (%) ([2]; Time 2): 10.25 ± 3.1 %
Contraction (%) ([2]; Time 3): 25 ± 2.7 %
Contraction (%) ([2]; Time 4): 53.5 ± 3.5 %
% area covered by mature granulation tissue ([2]; Time 4, 60 wounds per group): 41.7 ± 2.25%
Contraction (%) ([2]; Time 6): 61.7 ± 2.14 %
No. wounds with 100% epithelization ([3]; 60 wounds per group): 37
No. wounds with a mature epithelium ([3]; 60 wounds per group): 25
Contraction (%) ([3]; Time 1 (72 hours after induction of lesions)): 12.3 ± 2.1*^a %
Contraction (%) ([3]; Time 2 (five days)): 23 ± 2.7*^a %
Contraction (%) ([3]; Time 3 (seven days)): 67.5 ± 3.1*^a %
Contraction (%) ([3]; Time 4 (nine days)): 76.5 ± 2.2*^a %
% area covered by mature granulation tissue ([3]; Time 4, 60 wounds per group): 66.7 ± 3.22%

epidermal growth factor (EGF) [Free EGF, non-encapsulated epidermal growth factor]
efficacy [4]: greater than 50%
